Each structure is given as a SMILES string.

Assay [1] deals with dulcitol accumulation in tissues of galactose-fed rats (aldose reductase inhibiting property). Description: dulcitol accumulation in lens, sciatic nerve and diaphragm of galactosemic rats. Type of assay: in vivo, male Sprague-Dawley rats. From the text: Such experiments are exemplified hereinbelow after the listing of the following general comments pertaining to these experiments:
(a) Four or more groups of six male rats, 50-70 g, Sprague-Dawley strain, were used. The first group, the control group, was fed a mixture of laboratory chow (roden Laboratory Chow, Purina) and glucose at 20% (w/w %) concentration. The untreated galactosemic group was fed a similar diet in which galactose is substituted for glucose. The third group was fed a diet prepared by mixing a given amount of the test compound with the galactose containing diet. The concentration of galactose in the diet of the treated groups was the same as that for the untreated galactosemic group.
(b) After four days, the animals were killed by decapitation. The eyeballs were removed and punctured with a razor blade; the freed lenses were rolled gently on filter paper and weighed. The sciatic nerves were dissected as completely as possible and weighed. Both tissues when frozen can be kept up to two weeks before being analyzed for dulcitol.
Only two minor reagent changes were made: (a) The rinsing mixture was an aqueous 5% (w/v) trichloroacetic acid solution and (b) the stock solution was prepared by dissolving 25 mg of dulcitol in 100 ml of an aqueous trichloroacetic acid solution. [N.B.: For each experiment the average value found in the tissue from rats fed the glucose diet was subtracted from the individual values found in the corresponding tissue in galactose-fed rats to obtain the amount of polyol accumulated.] […] In the present case the procedure of Hayman and Kinoshita was modified in that the final chromatography step was omitted in the preparation of the enzyme from bovine lens.
The figures under L, N and D represent the percentage decrease of dulcitol accumulation in the tissues of the lens, sciatic nerve and diaphragm, respectively, for treated rats as compared to untreated rats.

Assay [2] relates to aldose reductase. As to conditions: literature; cited from earlier work.
[3] abbreviates: 26 mg/kg/day in diet, 4 days, vs untreated galactosemic rats.

Consider `COc1ccc2c(C(=S)N(C)CC(N)=O)cccc2c1C(F)(F)F` [compound 1, N-[[5-(trifluoromethyl)-6-methoxy-1-naphthalenyl]-thioxomethyl]-N-methylglycinamide], for which the “in vivo results compared with compound No. 9 (tolrestat)” value in assay [1] (5 mg/kg/day) was “comparable results”. In addition, the “% lowering dulcitol accumulation in vivo, N (sciatic nerve)” value in assay [1] (5 mg/kg/day in diet, 4 days, vs untreated galactosemic rats) is 54%.
As to `COc1ccc2c(C(=O)N(C)CC(N)=O)cccc2c1C(F)(F)F` [compound 8, N-[[6-Methoxy-5-(trifluoromethyl)-1-naphthalenyl]carbonyl]-N-methylglycinamide], in assay [1] (diaphragm, 28 mg/kg/day in diet, 4 days, vs untreated galactosemic rats), the “% lowering dulcitol accumulation in vivo, D (diaphragm)” value worked out at 42%. In addition, in assay [1] (28 mg/kg/day in diet, 4 days, vs untreated galactosemic rats), the “% lowering dulcitol accumulation in vivo, N (sciatic nerve)” value amounted to 66%.
Turning to `COc1ccc2c(C(=S)N(C)CC(=O)N(C)C)cccc2c1C(F)(F)F` [compound 3, 2-[[[6-Methoxy-5-(trifluoromethyl)-1-naphthalenyl]thioxomethyl]methylamino]-N,N-dimethylacetamide], the “% lowering dulcitol accumulation in vivo, N (sciatic nerve)” value in assay [1] (55 mg/kg/day in diet, 4 days, vs untreated galactosemic rats) was found to be 48%.
On to `COC(=N)NC(=O)CN(C)C(=S)c1cccc2c(C(F)(F)F)c(OC)ccc12` [compound 4, N--[[[[5-(trifluoromethyl)-6-methoxy-1-naphthalenyl]thioxomethyl]-N--methylamino]acetyl]carbamimidic acid, methyl ester], for which the “% lowering dulcitol accumulation in vivo, N (sciatic nerve)” value in assay [1] (setting [3]) is listed as 62%.
Take `COC(=O)NC(=O)CN(C)C(=S)c1cccc2c(C(F)(F)F)c(OC)ccc12` [compound 6, [[[5-(Trifluoromethyl)-6-methoxy-1-naphthalenyl]thioxomethyl](methylamino)acetyl]carbamic acid, Methyl Ester]: the “% lowering dulcitol accumulation in vivo, N (sciatic nerve)” value in assay [1] (8.4 mg/kg/day in diet, 4 days, vs untreated galactosemic rats) was found to be 33%; in assay [1] (setting [3]), 93%.
On to `O=C1NC(=O)[C@@]2(CCOc3ccc(F)cc32)N1` [sorbinil, (S)-6-Fluoro-2,3-dihydrospiro(4H-1-benzopyran-4,4'-imidazolidine)-2',5'-dione], for which the “aldose reductase inhibition, in words” value in assay [2] is on record as “aldose reductase inhibiting properties”.
As to `O=C(O)CN1C(=O)c2cccc3cccc(c23)C1=O` [1,3-Dioxo-1H-benz[de]isoquinoline-2(3H)-acetic acid], the “aldose reductase inhibition, in words” value in assay [2] is “effective inhibitor of aldose reductase”.

(Values after US4672059A, “N-[[5-(trifluoromethyl)-6-methoxy-1-naphthalenyl]-thioxomethyl and carbonyl]-N-methylglycinamides” (American Home Products Corporation, priority 1985, dated 1987).)
